Columns and labels:
[1] = biological target: T1, PI3Kα (wild-type) (Homo sapiens, UniProt P42336); assay: PI3 Kinase TR-FRET assay, PI3Kα (wild-type); assay type: biochemical; settings: wild-type P110/P85α, 10 μM ATP
T1 construct: made in house; host or cells: SF9 insect cells
Summary of the method: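 Sf9-expressed, Ni-purified p110/p85α (5 ng) with PIP2 was preincubated with compound for 60 min at room temperature in buffer with 40 mM MgCl2 and 5 mM DTT. The reaction ran 30 min at room temperature with 10 μM PIP2 and 10 μM ATP. The TR-FRET 665/615 nm ratio was used to derive IC50 from dose-response curves.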

[2] = biological target: T2, mTOR kinase (Homo sapiens, UniProt P42345); assay: mTOR kinase TR-FRET assay; assay type: biochemical; settings: 20 μM ATP
T2 construct: purchased Millipore, USA
Summary of the method: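 Test compounds were pre-incubated 60 min with mTOR (5 ng), then ULight-p70 S6K (Thr389) peptide (50 nM) and ATP (20 μM) were added in HEPES 50 mM pH 7.5, EGTA, MnCl2 3 mM. After 60 min at room temperature, EDTA stop and Eu-anti-phospho antibody TR-FRET (665/615 nm) gave IC50 from sigmoidal variable-slope fits.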

[3] = system: PC3 cells; assay: XTT assay for cell viability, PC3 cells; assay type: cell-based; settings: Homo sapiens, PC-3; PC3 cell proliferation, 96 hours
Procedure: Using a commercial kit from Sigma Aldrich (Catalog #X34251) and following its protocol, PC3 cells in the log phase of growth were employed and seeded at an optimal density of 1000 cell/well on to 96 well plates and incubated for 24 hours followed by the addition of compounds of formula (I) in serial dilutions. Compound dilutions were made in DMSO. The cells were incubated with the compounds of formula (I) for 96 hours and XTT tetrazolium dye (Sigma, USA) was subsequently added and incubated at 37° C. After the color formation, absorbance was measured at 465 nm in a Spectramax® Gemini spectrophotometer. EC50 values were calculated using a sigmoidal dose response curve fit in GraphPad Prism® v5 software. The tested compounds of formula (I) which caused inhibition of PC3 cell proliferation as determined by this assay protocol are shown in Table 2.

T1 sequence (P42336 whole entry, species assumed): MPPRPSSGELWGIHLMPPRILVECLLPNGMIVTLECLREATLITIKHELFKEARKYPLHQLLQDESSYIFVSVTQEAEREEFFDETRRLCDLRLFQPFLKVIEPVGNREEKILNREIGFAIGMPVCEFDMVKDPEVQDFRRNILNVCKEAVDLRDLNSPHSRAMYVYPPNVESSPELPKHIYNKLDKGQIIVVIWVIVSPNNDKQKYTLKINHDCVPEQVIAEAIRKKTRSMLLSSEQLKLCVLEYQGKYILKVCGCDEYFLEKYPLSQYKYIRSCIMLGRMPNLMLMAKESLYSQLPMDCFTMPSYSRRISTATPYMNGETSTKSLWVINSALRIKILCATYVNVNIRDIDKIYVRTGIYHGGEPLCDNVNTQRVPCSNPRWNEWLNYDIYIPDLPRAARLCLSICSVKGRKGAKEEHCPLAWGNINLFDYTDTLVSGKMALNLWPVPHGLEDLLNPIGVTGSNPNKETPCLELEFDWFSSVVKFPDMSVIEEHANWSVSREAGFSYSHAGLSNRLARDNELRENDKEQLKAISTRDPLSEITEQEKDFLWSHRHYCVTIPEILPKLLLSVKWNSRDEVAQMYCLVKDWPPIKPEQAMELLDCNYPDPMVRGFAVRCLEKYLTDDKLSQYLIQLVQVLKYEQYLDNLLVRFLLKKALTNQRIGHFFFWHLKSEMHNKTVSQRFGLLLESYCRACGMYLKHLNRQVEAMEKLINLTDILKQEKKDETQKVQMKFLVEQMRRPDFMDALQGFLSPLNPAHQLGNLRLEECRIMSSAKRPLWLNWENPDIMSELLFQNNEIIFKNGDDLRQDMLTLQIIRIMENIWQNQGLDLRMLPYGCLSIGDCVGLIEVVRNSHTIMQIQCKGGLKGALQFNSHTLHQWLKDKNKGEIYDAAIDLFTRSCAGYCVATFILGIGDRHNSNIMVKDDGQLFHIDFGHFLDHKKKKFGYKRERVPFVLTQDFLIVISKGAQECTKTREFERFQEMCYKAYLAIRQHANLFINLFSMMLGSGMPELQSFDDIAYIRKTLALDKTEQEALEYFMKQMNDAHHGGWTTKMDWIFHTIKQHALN
T1 sequence (P27986 whole entry partner, species assumed): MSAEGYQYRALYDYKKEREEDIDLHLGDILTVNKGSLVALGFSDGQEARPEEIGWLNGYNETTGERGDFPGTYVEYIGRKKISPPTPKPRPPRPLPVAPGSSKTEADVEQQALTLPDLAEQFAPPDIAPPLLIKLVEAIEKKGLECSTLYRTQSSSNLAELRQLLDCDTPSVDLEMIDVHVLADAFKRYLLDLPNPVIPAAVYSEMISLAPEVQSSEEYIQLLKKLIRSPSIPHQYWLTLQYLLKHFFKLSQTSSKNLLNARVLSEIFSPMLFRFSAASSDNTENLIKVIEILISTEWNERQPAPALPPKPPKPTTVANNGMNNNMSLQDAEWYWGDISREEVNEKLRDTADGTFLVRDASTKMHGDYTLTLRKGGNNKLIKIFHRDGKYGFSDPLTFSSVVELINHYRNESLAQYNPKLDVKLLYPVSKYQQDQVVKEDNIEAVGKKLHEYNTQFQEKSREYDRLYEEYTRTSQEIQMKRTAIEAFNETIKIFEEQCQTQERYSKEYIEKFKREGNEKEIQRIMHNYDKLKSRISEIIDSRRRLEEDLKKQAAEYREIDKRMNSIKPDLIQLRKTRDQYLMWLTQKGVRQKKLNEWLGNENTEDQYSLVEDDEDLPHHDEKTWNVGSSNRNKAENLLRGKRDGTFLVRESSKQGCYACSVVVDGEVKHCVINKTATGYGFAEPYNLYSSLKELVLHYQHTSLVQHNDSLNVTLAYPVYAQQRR
T2 sequence (P42345 1362-2549 limits assumed): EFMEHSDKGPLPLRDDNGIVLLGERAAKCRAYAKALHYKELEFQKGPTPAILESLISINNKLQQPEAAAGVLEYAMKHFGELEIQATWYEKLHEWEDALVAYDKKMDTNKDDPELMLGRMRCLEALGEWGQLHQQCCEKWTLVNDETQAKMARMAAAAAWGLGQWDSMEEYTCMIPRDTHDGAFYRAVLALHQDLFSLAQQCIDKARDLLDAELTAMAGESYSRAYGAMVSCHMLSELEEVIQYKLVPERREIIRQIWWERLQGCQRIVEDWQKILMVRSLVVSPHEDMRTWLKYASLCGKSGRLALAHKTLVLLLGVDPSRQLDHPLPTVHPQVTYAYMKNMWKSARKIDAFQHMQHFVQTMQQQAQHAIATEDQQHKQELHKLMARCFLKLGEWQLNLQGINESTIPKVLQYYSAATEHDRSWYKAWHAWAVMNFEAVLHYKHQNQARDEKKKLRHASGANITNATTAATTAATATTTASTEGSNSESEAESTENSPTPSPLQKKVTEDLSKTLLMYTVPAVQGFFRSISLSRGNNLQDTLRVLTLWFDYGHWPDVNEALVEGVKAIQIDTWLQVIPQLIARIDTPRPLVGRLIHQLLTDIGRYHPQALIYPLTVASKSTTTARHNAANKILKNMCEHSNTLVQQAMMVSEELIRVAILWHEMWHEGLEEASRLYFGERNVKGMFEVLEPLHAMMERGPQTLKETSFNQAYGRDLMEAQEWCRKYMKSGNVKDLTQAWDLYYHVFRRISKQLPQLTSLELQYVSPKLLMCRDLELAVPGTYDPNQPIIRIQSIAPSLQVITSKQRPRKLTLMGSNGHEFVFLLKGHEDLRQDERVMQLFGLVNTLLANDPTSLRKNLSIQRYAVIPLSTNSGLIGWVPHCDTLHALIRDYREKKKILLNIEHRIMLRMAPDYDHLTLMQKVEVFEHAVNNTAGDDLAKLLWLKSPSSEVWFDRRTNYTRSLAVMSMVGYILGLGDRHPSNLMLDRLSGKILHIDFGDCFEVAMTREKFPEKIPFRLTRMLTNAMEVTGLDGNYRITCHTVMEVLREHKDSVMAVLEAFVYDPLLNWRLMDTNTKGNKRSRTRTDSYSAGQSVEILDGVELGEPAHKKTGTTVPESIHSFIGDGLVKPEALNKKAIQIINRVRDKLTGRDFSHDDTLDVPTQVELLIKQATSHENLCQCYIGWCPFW

SMILES	IC50 [1]	IC50 [2]	IC50 [3]
CC(=O)Nc1ccc(F)c(-c2cnc3c(N4CCOCC4)nc(-c4cnc(N)nc4)nc3c2)c1 [Example 55, N-(3-(2-(2-amino-pyrimidin-5-yl)-4-morpholinopyrido[3,2-d]pyrimidin-7-yl)-4-fluorophenyl)acetamide]	< 50 nM	50 to 200 nM	100 to 500 nM
Nc1ncc(-c2nc(N3CCOCC3)c3ncc(-c4cccc(NC(=O)C5CCCCC5)c4)cc3n2)cn1 [Example 60, N-(3-(2-(2-amino-pyrimidin-5-yl)-4-morpholinopyrido[3,2-d]pyrimidin-7-yl)-phenyl)cyclohexane-carboxamide]	< 50 nM	50 to 200 nM	501 to 5000 nM
Nc1ncc(-c2nc(N3CCOCC3)c3ncc(-c4cccc(NC(=O)C56CC7CC(CC(C7)C5)C6)c4)cc3n2)cn1 [Example 65, N-(3-(2-(2-amino-pyrimidin-5-yl)-4-morpholinopyrido[3,2-d]pyrimidin-7-yl)-phenyl)adamantane-1-carboxamide]	< 50 nM	201 to 10000 nM	501 to 5000 nM
Nc1ncc(-c2nc(N3CCOCC3)c3ncc(-c4ccc(NC(=O)c5cccnc5)cc4)cc3n2)cn1 [Example 77, N-(4-(2-(2-amino-pyrimidin-5-yl)-4-morpholinopyrido[3,2-d]pyrimidin-7-yl)-phenyl)nicotinamide]	< 50 nM	< 50 nM	100 to 500 nM
CN1CCN(CC(=O)Nc2cccc(-c3cnc4c(N5CCOCC5)nc(-c5cnc(N)nc5)nc4c3)c2)CC1 [Example 83, N-(3-(2-(2-aminopyrimidin-5-yl)-4-morpholinopyrido[3,2-d]pyrimidin-7-yl)phenyl)-2-(4-methylpiperazin-1-yl)acetamide]	< 50 nM	50 to 200 nM	100 to 500 nM
CN1CCN(C(=O)Nc2cccc(-c3cnc4c(N5CCOCC5)nc(-c5cnc(N)nc5)nc4c3)c2)CC1 [Example 89, N-(3-(2-(2-aminopyrimidin-5-yl)-4-morpholinopyrido[3,2-d]pyrimidin-7-yl)phenyl)-4-methylpiperazine-1-carboxamide]	< 50 nM	< 50 nM	501 to 5000 nM
Nc1ncc(-c2nc(N3CCOCC3)c3ncc(-c4cccc(C(=O)Nc5ccncc5F)c4)cc3n2)cn1 [Example 97, 3-(2-(2-aminopyrimidin-5-yl)-4-morpholinopyrido[3,2-d]-pyrimidin-7-yl)-N-(3-fluoropyridin-4-yl)-benzamide]	< 50 nM	< 50 nM	100 to 500 nM
Nc1ncc(-c2nc(N3CCOCC3)c3ncc(-c4cccc(C(=O)NC5CC5)c4)cc3n2)cn1 [Example 98, 3-(2-(2-aminopyrimidin-5-yl)-4-morpholinopyrido[3,2-d]-pyrimidin-7-yl)-N-cyclopropylbenzamide]	< 50 nM	< 50 nM	100 to 500 nM
Nc1ncc(-c2nc(N3CCOCC3)c3ncc(-c4cccc(NC(=O)c5cncc(F)c5)c4)cc3n2)cn1 [Example 99, N-(3-(2-(2-amino-pyrimidin-5-yl)-4-morpholinopyrido[3,2-d]-pyrimidin-7-yl)phenyl)-5-fluoronicotinamide]	< 50 nM	< 50 nM	100 to 500 nM
CN1CCN(c2cncc(-c3cnc4c(N5CCOCC5)nc(-c5cnc(N)nc5)nc4c3)c2)CC1 [Example 100, 5-(7-(5-(4-methyl-piperazin-1-yl)pyridin-3-yl)-4-morpholino-pyrido[3,2-d]pyrimidin-2-yl)pyrimidin-2-amine]	< 50 nM	50 to 200 nM	501 to 5000 nM

Now from value to compound:

IC50 [1]	IC50 [2]	IC50 [3]	SMILES
< 50 nM	50 to 200 nM	100 to 500 nM	CN1CCN(c2cccc(-c3cnc4c(N5CCOCC5)nc(-c5cnc(N)nc5)nc4c3)c2)CC1 [Example 101, 5-(7-(3-(4-methyl-piperazin-1-yl)phenyl)-4-morpholinopyrido[3,2-d]-pyrimidin-2-yl)pyrimidin-2-amine]
< 50 nM	50 to 200 nM	100 to 500 nM	CN(C)CCNC(=O)c1cccc(-c2cnc3c(N4CCOCC4)nc(-c4cnc(N)nc4)nc3c2)c1 [Example 102, 3-(2-(2-aminopyrimidin-5-yl)-4-morpholinopyrido[3,2-d]-pyrimidin-7-yl)-N-(2-(dimethylamino)ethyl)-benzamide]
< 50 nM	50 to 200 nM	501 to 5000 nM	Nc1ncc(-c2nc(N3CCOCC3)c3ncc(-c4cccc(N5CCNCC5)c4)cc3n2)cn1 [Example 106, 5-(4-morpholino-7-(3-(piperazin-1-yl)-phenyl)pyrido[3,2-d]-pyrimidin-2-yl)pyrimidin-2-amine]
< 50 nM	< 50 nM	100 to 500 nM	CC(C)(O)C(=O)N1CCN(c2cccc(-c3cnc4c(N5CCOCC5)nc(-c5cnc(N)nc5)nc4c3)c2)CC1 [Example 108, 1-(4-(3-(2-(2-amino-pyrimidin-5-yl)-4-morpholinopyrido[3,2-d]pyrimidin-7-yl)-phenyl)piperazin-1-yl)-2-hydroxy-2-methylpropan-1-one]
< 50 nM	50 to 200 nM	100 to 500 nM	Nc1ncc(-c2nc(N3CCOCC3)c3ncc(-c4ccc5c(c4)NC(=O)CO5)cc3n2)cn1 [Example 111, 6-(2-(2-aminopyrimidin-5-yl)-4-morpholinopyrido[3,2-d]pyrimidin-7-yl)-2H-benzo[b][1,4]oxazin-3(4H)-one]
< 50 nM	< 50 nM	501 to 5000 nM	Nc1ncc(-c2nc(N3CCOCC3)c3ncc(-c4cccc(N5CCN(CCO)CC5)c4)cc3n2)cn1 [Example 113, 2-(4-(3-(2-(2-amino-pyrimidin-5-yl)-4-morpholinopyrido[3,2-d]pyrimidin-7-yl)-phenyl)piperazin-1-yl)-ethanol]
< 50 nM	< 50 nM	100 to 500 nM	CC(=O)Nc1cc(-c2cnc3c(N4CCOCC4)nc(-c4cnc(N)nc4)nc3c2)ccc1N1CCN(C)CC1 [Example 114, N-(5-(2-(2-amino-pyrimidin-5-yl)-4-morpholinopyrido[3,2-d]pyrimidin-7-yl)-2-(4-methylpiperazin-1-yl)-phenyl)acetamide]
< 50 nM	< 50 nM	100 to 500 nM	Nc1ncc(-c2nc(N3CCOCC3)c3ncc(-c4cccc(NC(=O)C5CC5)c4F)cc3n2)cn1 [Example 115, N-(3-(2-(2-amino-pyrimidin-5-yl)-4-morpholinopyrido[3,2-d]pyrimidin-7-yl)-2-fluorophenyl)-cyclopropane-carboxamide]
< 50 nM	201 to 10000 nM	501 to 5000 nM	Nc1ncc(-c2nc(N3CCOCC3)c3ncc(-c4cccc(C(=O)N5CCN(CCO)CC5)c4)cc3n2)cn1 [Example 116, (3-(2-(2-aminopyrimidin-5-yl)-4-morpholinopyrido[3,2-d]-pyrimidin-7-yl)phenyl)(4-(2-hydroxyethyl)piperazin-1-yl)methanone]
< 50 nM	< 50 nM	100 to 500 nM	CN1CCN(c2ccc(-c3cnc4c(N5CCOCC5)nc(-c5cnc(N)nc5)nc4c3)cc2NC(=O)C2CC2)CC1 [Example 117, N-(5-(2-(2-amino-pyrimidin-5-yl)-4-morpholinopyrido[3,2-d]pyrimidin-7-yl)-2-(4-methylpiperazin-1-yl)-phenyl)cyclopropane-carboxamide]

From patent US9145411B2, “Substituted amino-pyrimidine derivatives” (Asana Biosciences, LLC, priority 2012, dated 2015)
